Experimental data reported in paper PMC8200211, “PTD4 Peptide Increases Neural Viability in an In Vitro Model of Acute Ischemic Stroke” (International Journal of Molecular Sciences, 2021).
“Also recorded” adds a separate entry of the source. Where two headings read alike, the source gives them in different places. Where no end group is shown, it is not given here.

Key:
[1] = system: primary neural cortical cultures; test: Peptide neurotoxicity, CellTiter-Blue viability assay; format: cell-based, Wistar rat; settings: for Neural viability, relative to non-insulted control: 100 µM; for Concentration at which neurotoxic impact was visible: tested 1, 10, 50, 100, 200 µM
Method: (§1) All animal experiments were conducted in accord with the permission of the Local Bioethics Committee. Primary cortical neurons were isolated from Wistar rat embryos at embryonic day 18.5 (E18.5). Pregnant females were euthanized in a CO2 chamber, and the embryos were immediately removed in order to microdissect the brains. The cortices were excised, transferred to Hank’s Balanced Salt Solution (HBSS, Gibco, Waltham, MA, USA), supplemented with a 1% penicillin/streptomycin mixture (Gibco, Waltham, MA, USA) and washed. Afterwards, the tissue was trypsinized (2.5% trypsin, Gibco, Waltham, MA, USA) for 10 min at 37 °C, and homogenized gently by re-suspension with a sterile tip of a pipette. The cell suspension was centrifuged in 300 rcf for 4 min and re-suspended in Neurobasal-A medium (Gibco, Waltham, MA, USA) supplemented to final concentration with 1 mM sodium pyruvate, 12.5 mM glucose 2% B27 (Gibco, Waltham, MA, USA), […] L-glutamine, […], a 1% penicillin/streptomycin mixture, and seeded in a 24-well plate poly-D-lysine (PDL)-coated (BioCoat, Corning, Tewksburry, MA, USA) in the number of 200,000 cells per well. The neural cultures were incubated in a CO2 chamber (5%, 95% air balance, 98% humidity, 37 °C) for 14 days and were used on culture day in vitro (DIV) 14–15.
The influence of all peptides on neural viability was assessed by exposing the cells to different peptide concentrations (1, 10, 50, 100, 200 µM) for 20 h at 37 °C in a 5% CO2 chamber. The assessments were performed in 24-well PDL-coated plates (BioCoat, Corning, Tewksbury, MA, USA) with a working volume of 500 µL/well. The respective peptide solutions were prepared in culture medium so that in all wells only 50 µL of the medium was exchanged, including control (untreated) samples.
Neural viability was assessed in CellTiter-Blue® (CTB) assay (Promega, cat #G8080, Madison, WI, USA) after 20 h long incubation of cells in standard Neurobasal medium after stressful conditions. The test was performed in 24-well PDL-coated plates (BioCoat, Corning, Tewksbury, MA, USA) and according to the manufacturer’s guideline, which included adding the solution to the neural culture well, followed by incubation for 1–4 h at 37 °C (5% CO2). The fluorescence intensity of the CTB reagent was measured spectrofluorimetrically (560ex/590em) and was proportional to the number of viable cells. The results were calculated as a percentage taking the respective control (non-insulted) measurement as 100% viability.
Each cell viability experiment was performed in at least three biologically independent experiments, in each of which neural cultures were obtained from one female rat. Each female originated from different breeding parents. In one experiment, the viability assessments for each condition were conducted in three plates, with three–four replicate wells per plate. For every plate, relative viability for one condition were averaged, and then used to calculate averaged results for all plates in an experiment. The final values were calculated from averaged results of independent experiments and shown as a mean ± standard deviation (SD), n = 3. The data were analyzed by a two-way ANOVA test with p-value < 0.05 values considered statistically significant.

[2] = system: pre-insulted rat primary neural culture; test: Pro-viable effect of peptides in a multifactorial in vitro model of acute ischemic stroke, CellTiter-Blue; format: cell-based, Wistar rat; settings: 1 h, then 50 µM peptide 20 h; for Neuroprotection against excitotoxicity: 400 µM glutamic acid, 800 µM NMDA or 800 µM kainic acid
Method: as §1, with “14–15. […]” for “14–15.”
Neural viability was assessed in CellTiter-Blue® (CTB) assay (Promega, cat #G8080, Madison, WI, USA) after 20 h long incubation of cells in standard Neurobasal medium after stressful conditions. […] The fluorescence intensity of the CTB reagent was measured spectrofluorimetrically (560ex/590em) and was proportional to the number of viable cells. The results were calculated as a percentage taking the respective control (non-insulted) measurement as 100% viability. […]

cell membrane = settings: previous reports; cited from earlier work
Text: Comparing the native Tat(49–57)-NH2 and PTD4, the latter appeared as a better-performing neuroprotectant in the AIS model. Mechanistically, this may indicate a possible correlation between neuroprotection and the structural and acid-base peptide properties.

CC[C@H](C)[C@H](NC(=O)[C@H](CCCCN)NC(=O)[C@H](CCCCN)NC(=O)[C@H](C)NC(=O)[C@H](CC(C)C)NC(=O)[C@H](C)NC(=O)[C@H](C)NC(=O)[C@H](CC(C)C)NC(=O)[C@H](C)NC(=O)[C@H](CCCCN)NC(=O)[C@H](CC(C)C)NC(=O)[C@H](CC(N)=O)NC(=O)[C@@H](NC(=O)[C@H](CCCCN)NC(=O)CNC(=O)[C@H](CC(C)C)NC(=O)[C@H](CC(C)C)NC(=O)[C@H](Cc1ccc(O)cc1)NC(=O)CNC(=O)[C@H](C)N)[C@@H](C)CC)C(=O)N[C@@H](CC(C)C)C(N)=O [TP10, reference compound]
Neural viability, relative to non-insulted control [1]: < 10% | Neurotoxicity ranking among the peptides tested ([1]; 1-200 µM, 20 h exposure, CTB assay): highest toxicity | Concentration at which neurotoxic impact was visible ([1]; 20 h exposure, CTB assay): 1000 nM

C#CC(=O)N[C@@H](CCCNC(=N)N)C(=O)N[C@@H](CCCCN)C(=O)N[C@@H](CCCCN)C(=O)N[C@@H](CCCNC(=N)N)C(=O)N[C@@H](CCCNC(=N)N)C(=O)N[C@@H](CCC(N)=O)C(=O)N[C@@H](CCCNC(=N)N)C(=O)N[C@@H](CCCNC(=N)N)C(=O)N[C@@H](CCCNC(=N)N)C(N)=O [Prop-Tat]
Neural viability, relative to non-insulted control [1]: < 10% | Concentration at which neurotoxic impact was visible ([1]; 20 h exposure, CTB assay): 1000 nM

RKKR^52RQRRR^57-amide [Tat(49–57)-NH2, reference compound]
Neurotoxicity at higher concentrations ([1]; >100 µM, 20 h exposure, CTB assay, n = 3): most toxic impact; also recorded: significantly neurotoxic | Neuroprotection against excitotoxicity [2]: significant neuroprotection

YARAAARQARA-NH2 [PTD4, less basic Ala-substituted analogue of Tat(49–57)-NH2, cell-penetrating peptide]
Highest non-toxic concentration [1]: 50 µM | Neurotoxicity at higher concentrations [1]: significantly neurotoxic | Neurotoxicity at low concentrations [1]: negligible | Neurotoxicity ranking among the peptides tested [1]: lowest neurotoxicity | Neuroprotection against excitotoxicity [2]: significant neuroprotection | Pro-viable activity against acidosis ([2]; acidosis pH 6.35, 200 mM sodium lactate): displayed pro-viable activity | Efficiency of peptide translocation across the cell membrane compared to Tat(49–57)-NH2 (cell membrane): almost thirty times higher
